Values joined by “and” are separate entries in the source; they are usually repeats but may differ in a detail not shown here. Equal values may be shown once.
Legend:
[1] = target: T1, PfCRT variant E95A (Plasmodium falciparum, UniProt Q9N623, A220S/E95A/I356T/K76T/M74I/N326S/N75E/Q271E/R371I); experiment: CQ uptake assay, oocytes expressing E95A; type: cell-based
T1 sequence (Q9N623 1-424 M74I/N75E/K76T/E95A/A220S/Q271E/N326S/I356T/R371I): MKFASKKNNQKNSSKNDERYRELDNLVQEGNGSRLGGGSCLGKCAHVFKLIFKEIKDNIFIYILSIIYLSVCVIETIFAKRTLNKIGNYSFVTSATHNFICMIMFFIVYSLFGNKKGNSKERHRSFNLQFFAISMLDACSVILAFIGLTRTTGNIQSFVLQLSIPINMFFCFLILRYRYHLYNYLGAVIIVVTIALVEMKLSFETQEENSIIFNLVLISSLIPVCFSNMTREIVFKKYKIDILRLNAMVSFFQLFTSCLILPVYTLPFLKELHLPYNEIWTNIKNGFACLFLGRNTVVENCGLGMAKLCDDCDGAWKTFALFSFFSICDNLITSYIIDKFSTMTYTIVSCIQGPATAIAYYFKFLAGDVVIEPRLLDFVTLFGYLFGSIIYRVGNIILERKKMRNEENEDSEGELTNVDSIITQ
Procedure: (§1) Site-directed mutagenesis of PfCRT^Dd2 was performed as described using the megaprimer method with overlap extension[21],[54]. The primer pairs used are listed in Supplementary Table 6. Please note that a codon-optimized and oocyte-adapted version of PfCRT^Dd2 was used[22] (Supplementary Fig. 16). The resulting DNA fragment was cloned into the SP64T expression vector and verified by sequencing.
Oocytes were obtained as described previously. Briefly, adult (>2 years old) female X. laevis frogs (NASCO) were anesthetized in a cooled solution of ethyl 3-amino benzoate methanesulfonate (0.1%, w/v), followed by a surgical removal of parts of the ovary. The ovary lobes were carefully dissected and small pieces of oocytes were incubated in Ca^2+-free ND96 buffer (96 mM NaCl, 2 mM KCl, 1 mM MgCl2 buffered with 5 mM HEPES/NaOH, pH 7.5) supplemented with collagenase D (0.1%, w/v; Roche), BSA (0.5%, w/v), and 9 mm Na2HPO4 at 18 °C for 14-16 h while gentle shaking. After incubation, the oocytes were carefully washed several times with ND96 buffer (96 mM NaCl, 2 mM KCl, 1.8 mM CaCl2, 1 mM MgCl2 buffered with 5 mM HEPES/NaOH, pH 7.5) supplemented with 100 mg l^−1 gentamycin). Defolliculated and healthy-looking stage V-VI oocytes were manually selected for RNA microinjection. The RNA was generated as following: The codon-optimized sequences of PfCRT variants were cloned into the pSP64T expression vector. After vector linearization using the restriction endonucleases BamHI or SalI (New England Biolabs), transcription was performed using the in vitro SP6 mMessage mMachine Kit (Ambion)[34]. The obtained RNA was kept at −80 °C and diluted with nuclease-free water to a concentration of 0.6 μg μl^−1. […]
Drug uptake assays were performed as described previously[21],[22],[24],[34]. […] The radioactivity of each sample was measured using a liquid scintillation analyzer Tri-Carb 4910 TR (PerkinElmer). Oocytes that were injected with water instead of RNA were analyzed in parallel, representing the uptake of a drug by diffusion and/or endogenous permeation pathways. […]

[2] = system: PfCRT variant K80A; experiment: CQ uptake assay, oocytes expressing K80A; type: cell-based, Plasmodium falciparum
Procedure: as §1
Oocytes were obtained as described previously. Briefly, adult (>2 years old) female X. laevis frogs (NASCO) were anesthetized in a cooled solution of ethyl 3-amino benzoate methanesulfonate (0.1%, w/v), followed by a surgical removal of parts of the ovary. The ovary lobes were carefully dissected and small pieces of oocytes were incubated in Ca^2+-free ND96 buffer (96 mM NaCl, 2 mM KCl, 1 mM MgCl2 buffered with 5 mM HEPES/NaOH, pH 7.5) supplemented with collagenase D (0.1%, w/v; Roche), BSA (0.5%, w/v), and 9 mm Na2HPO4 at 18 °C for 14-16 h while gentle shaking. After incubation, the oocytes were carefully washed several times with ND96 buffer (96 mM NaCl, 2 mM KCl, 1.8 mM CaCl2, 1 mM MgCl2 buffered with 5 mM HEPES/NaOH, pH 7.5) supplemented with 100 mg l^−1 gentamycin). Defolliculated and healthy-looking stage V-VI oocytes were manually selected for RNA microinjection. The RNA was generated as following: The codon-optimized sequences of PfCRT variants were cloned into the pSP64T expression vector. After vector linearization using the restriction endonucleases BamHI or SalI (New England Biolabs), transcription was performed using the in vitro SP6 mMessage mMachine Kit (Ambion)[34]. The obtained RNA was kept at −80 °C and diluted with nuclease-free water to a concentration of 0.6 μg μl^−1. Precision-bore glass capillary tubes (3.5-inch glass capillaries; Drummond Scientific Co.) were pulled on a vertical puller (P-87 Flaming/Brown micropipette puller, Sutter Instrument Co.), graduated, and placed on a microinjector (Nanoject II Auto-Nanoliter Injector, Drummond Scientific Co.). 50 nl of nuclease-free water alone (control oocytes) or 50 nl of 0.6 μg μl^−1 RNA were injected under stereomicroscopic control. Injected oocytes were incubated for 46–72 h at 18 °C with twice-daily buffer changes before usage in experiments.
Drug uptake assays were performed as described previously[21],[22],[24],[34]. […] The direction of radio-labeled drug transport is here from the mostly acidic extracellular solution (pH 4.5 or 6.0, as indicated) into the oocyte cytosol (pH ∼ 7.2), which corresponds to the efflux of drug from the acidic digestive vacuole (pH 5.2) into the parasite cytoplasm (pH 7.2). The topology of PfCRT in the oolemma is such that both the N- and C-terminus face the extracellular milieu[3],[22]. In the parasite, the N- and C-terminus face the lumen of the digestive vacuole. CQ uptake kinetics were performed by incubating oocytes in ND96 buffer adjusted to a pH of 4.5, 5.0, 5.5, or 6.0 and supplemented with 50 nM [^3H]CQ and one of 7 different CQ concentrations (10 µM, 50 µM, 100 µM, 200 µM, 300 µM, 400 µM, 500 µM CQ). The reaction was stopped at the 60 min time point, which is in the linear uptake range[22],[34] (Supplementary Fig. 17). For determination of the amount of drug uptake for each oocyte, the reaction medium was removed and the oocytes were washed three times with 2 ml of ice-cold ND96 buffer. Each oocyte was individually transferred to a scintillation vial containing 5% sodium dodecyl sulfate (200 μl) for lysis. The radioactivity of each sample was measured using a liquid scintillation analyzer Tri-Carb 4910 TR (PerkinElmer). Oocytes that were injected with water instead of RNA were analyzed in parallel, representing the uptake of a drug by diffusion and/or endogenous permeation pathways. The resulting value represents the “background“ level of drug accumulation in oocytes (in-depth discussion in[22]). […]

[3] = K80A, 50 µM CQ, 1 h, mean ± SEM

CCN(CC)CCCC(C)Nc1ccnc2cc(Cl)ccc12 (stereo not drawn) [CQ, chloroquine]
Activity at pH 4.5 ([1]; 50 µM CQ, 1 h, mean ± SEM): 1.21 ± 0.20 pmol h-1 oocyte-1 | Activity at pH 6.0 ([1]; 50 µM CQ, 1 h, mean ± SEM): 2.74 ± 0.74 pmol h-1 oocyte-1 | R-value ([1]; CQ transport at pH 4.5 / pH 6.0): 0.41 ± 0.11 | Activity at pH 4.5 [2, 3]: 1.71 ± 0.08 pmol h-1 oocyte-1 | Activity at pH 6.0 [2, 3]: 2.26 ± 0.12 pmol h-1 oocyte-1 | R-value ([2]; K80A, CQ transport at pH 4.5 / pH 6.0): 0.76 ± 0.04 | K80A transport activity pH 4.5 ([2]; pH 4.5, individual replicates (Fig 6a)): 1.97 pmol oocyte-1 h-1 and 1.67 pmol oocyte-1 h-1 and 1.57 pmol oocyte-1 h-1 and 1.62 pmol oocyte-1 h-1 | K80A transport activity pH 6.0 ([2]; pH 6.0, individual replicates (Fig 6a)): 2.59 pmol oocyte-1 h-1 and 1.89 pmol oocyte-1 h-1 and 2.31 pmol oocyte-1 h-1 and 2.26 pmol oocyte-1 h-1 | K80A R-value ([2]; transport activity pH 4.5 relative to pH 6.0 (Fig 6a)): 0.76 and 0.88 and 0.68 and 0.72

From article PMC10349806 (Nature Communications, 2023)
